# The source made the active and inactive calls. No rule for the calls is given here.
# Molecular target: Mucolipin-3 (Homo sapiens) (UniProt Q8TDD5)
# Experiment: TRPML3 agonist potency, SAR follow-up, cell-based, HEK293, calcium fluorescence, analogs, round 2 (AID 602128)
# Settings: HEK293 TRPML3 cells
# Sequence of Mucolipin-3 (Homo sapiens) (Q8TDD5 whole entry, looked up): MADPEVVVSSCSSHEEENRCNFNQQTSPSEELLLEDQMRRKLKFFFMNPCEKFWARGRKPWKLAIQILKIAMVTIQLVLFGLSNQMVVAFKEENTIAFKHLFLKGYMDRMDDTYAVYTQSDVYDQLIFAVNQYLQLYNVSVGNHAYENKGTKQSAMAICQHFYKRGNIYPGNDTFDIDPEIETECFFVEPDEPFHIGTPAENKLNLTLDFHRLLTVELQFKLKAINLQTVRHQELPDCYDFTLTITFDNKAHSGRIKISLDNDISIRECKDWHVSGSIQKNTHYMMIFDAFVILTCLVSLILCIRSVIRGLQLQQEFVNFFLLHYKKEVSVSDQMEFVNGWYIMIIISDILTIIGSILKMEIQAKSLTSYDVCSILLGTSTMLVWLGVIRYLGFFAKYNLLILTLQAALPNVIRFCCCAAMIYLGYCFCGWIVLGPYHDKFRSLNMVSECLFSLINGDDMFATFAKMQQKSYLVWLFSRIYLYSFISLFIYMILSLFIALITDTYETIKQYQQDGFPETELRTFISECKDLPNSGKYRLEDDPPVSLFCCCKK
row,Structure (SMILES),EC50
1,Cc1ccc(S(=O)(=O)n2ccc(-c3c(-c4ccc(Cl)cc4)noc3C)n2)cc1,0.291 µM
2,Cc1ccc(S(=O)(=O)n2nccc2-c2c(-c3ccc(Cl)cc3)noc2C)cc1,> 29.9 µM (inactive)

# From PubChem BioAssay AID602128 (The Scripps Research Institute Molecular Screening Center, 2011)
